From PubChem BioAssay AID328 (DTP/NCI, 2004) come the findings set out here.

This assay has as its system BDF1 mice, P388 leukemia ip, median survival T/C. Briefly: NCI In Vivo Anticancer Drug Screen. Data for tumor model P388 Leukemia (intraperitoneal) in B6D2F1 (BDF1) mice. The following applies: endpoint: median survival time, higher = longer survival. The gist of the method: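 Antitumour effect was judged in vivo: survival in drug-treated mice, normalised to that of vehicle-dosed controls, gives the reported T/C.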

[1] abbreviates: dose: 200.0 mg/kg/injection, schedule: Q04DX003 (ip), vehicle: Klucel (hydroxypropylcellulose) (HPC).
Where [2] appears, read: dose: 50.0 mg/kg/injection, schedule: Q01DX009 (ip), vehicle: saline.
[3] abbreviates: dose: 100.0 mg/kg/injection, schedule: Q01DX009 (ip), vehicle: saline.
Where [4] appears, read: dose: 200.0 mg/kg/injection, schedule: Q01DX009 (ip), vehicle: saline.
The mark [5] stands for this setting: dose: 25.0 mg/kg/injection, schedule: Q01DX009 (ip), vehicle: saline with Tween-80.
Where [6] appears, read: dose: 100.0 mg/kg/injection, schedule: Q04DX003 (ip), vehicle: saline with Tween-80.
Where [7] appears, read: dose: 200.0 mg/kg/injection, schedule: Q04DX003 (ip), vehicle: saline with Tween-80.
[8] abbreviates: dose: 400.0 mg/kg/injection, schedule: Q04DX003 (ip), vehicle: saline with Tween-80.

Several values for one entry are separate records, joined by “and”; a condition that tells them apart may be missing. Identical values can stand only once. Inconclusive results and toxic doses are left out.

On to `CC(CN1CC(=O)NC(=O)C1)N1CC(=O)NC(=O)C1` (stereo not given), for which the T/C by setting is: (dose: 3.12 mg/kg/injection, schedule: Q03HX024 (ip), vehicle: steriod suspending solution) 200 % of control; (dose: 3.75 mg/kg/injection, schedule: Q01DX010 (oral), vehicle: saline with Tween-80) 109 % of control; (dose: 6.25 mg/kg/injection, schedule: Q03HX024 (ip), vehicle: steriod suspending solution) 205 % of control; (dose: 10.0 mg/kg/injection, schedule: Q04DX003 (ip), vehicle: Klucel (hydroxypropylcellulose) (HPC)) 117 % of control; (dose: 12.5 mg/kg/injection, schedule: Q01DX009 (ip), vehicle: steriod suspending solution) 100 % of control; (dose: 12.5 mg/kg/injection, schedule: Q03HX024 (ip), vehicle: steriod suspending solution) 258 % of control. The T/C reads like this: (dose: 15.0 mg/kg/injection, schedule: Q01DX010 (oral), vehicle: saline with Tween-80) 154 % of control; (dose: 25.0 mg/kg/injection, schedule: Q03HX024 (ip), vehicle: steriod suspending solution) 211 % of control; (dose: 30.0 mg/kg/injection, schedule: Q01DX010 (ip), vehicle: saline) 186 % of control; (dose: 50.0 mg/kg/injection, schedule: Q01DX009 (ip), vehicle: steriod suspending solution) 164 % of control; (dose: 50.0 mg/kg/injection, schedule: Q04DX002 (ip), vehicle: Klucel (hydroxypropylcellulose) (HPC)) 111 % of control; (dose: 60.0 mg/kg/injection, schedule: Q01DX010 (ip), vehicle: saline) 181 % of control. Also, the T/C (dose: 100.0 mg/kg/injection, schedule: Q01DX001 (ip), vehicle: steriod suspending solution) was 111 % of control; the T/C (dose: 100.0 mg/kg/injection, schedule: Q01DX009 (ip), vehicle: steriod suspending solution) is 111 % of control; the T/C (dose: 100.0 mg/kg/injection, schedule: Q04DX002 (ip), vehicle: Klucel (hydroxypropylcellulose) (HPC)) was 108 % of control; the T/C (dose: 100.0 mg/kg/injection, schedule: Q04DX003 (ip), vehicle: steriod suspending solution) is 176 % of control; the T/C (dose: 108.0 mg/kg/injection, schedule: Q04DX003 (ip), vehicle: Klucel (hydroxypropylcellulose) (HPC)) was 231 % of control; the T/C (dose: 120.0 mg/kg/injection, schedule: Q01DX010 (ip), vehicle: saline) was 113 % of control. Further, the T/C runs as follows: (dose: 144.0 mg/kg/injection, schedule: Q04DX003 (ip), vehicle: Klucel (hydroxypropylcellulose) (HPC)) 203 % of control; (dose: 180.0 mg/kg/injection, schedule: Q04DX003 (ip), vehicle: Klucel (hydroxypropylcellulose) (HPC)) 287 % of control; (dose: 180.0 mg/kg/injection, schedule: Q04DX003 (ip), vehicle: alkali diluted with saline) 196 % of control; (dose: 200.0 mg/kg/injection, schedule: Q04DX002 (ip), vehicle: Klucel (hydroxypropylcellulose) (HPC)) 161 % of control; under setting [1], 100 % of control and 153 % of control and 215 % of control; (dose: 200.0 mg/kg/injection, schedule: Q04DX003 (ip), vehicle: steriod suspending solution) 194 % of control. Also, the T/C is 212 % of control (dose: 216.0 mg/kg/injection, schedule: Q04DX003 (ip), vehicle: Klucel (hydroxypropylcellulose) (HPC)); 245 % of control (dose: 240.0 mg/kg/injection, schedule: Q04DX003 (ip), vehicle: Klucel (hydroxypropylcellulose) (HPC)); 252 % of control (dose: 300.0 mg/kg/injection, schedule: Q04DX003 (ip), vehicle: alkali diluted with saline); 152 % of control (dose: 400.0 mg/kg/injection, schedule: Q01DX001 (ip), vehicle: steriod suspending solution); 193 % of control and 199 % of control (dose: 400.0 mg/kg/injection, schedule: Q04DX002 (ip), vehicle: Klucel (hydroxypropylcellulose) (HPC)); 176 % of control (dose: 400.0 mg/kg/injection, schedule: Q04DX003 (ip), vehicle: steriod suspending solution). Also, the T/C is, setting by setting: (dose: 500.0 mg/kg/injection, schedule: Q04DX003 (ip), vehicle: Klucel (hydroxypropylcellulose) (HPC)) 91 % of control and 96 % of control; (dose: 500.0 mg/kg/injection, schedule: Q04DX003 (ip), vehicle: alkali diluted with saline) 93 % of control; (dose: 800.0 mg/kg/injection, schedule: Q01DX001 (ip), vehicle: steriod suspending solution) 94 % of control; (dose: 800.0 mg/kg/injection, schedule: Q04DX003 (ip), vehicle: steriod suspending solution) 111 % of control.
Regarding `O=C1CCCSc2ccccc21`, the T/C is, setting by setting: (dose: 100.0 mg/kg/injection, schedule: Q01DX009 (ip), vehicle: Klucel (hydroxypropylcellulose) (HPC)) 120 % of control; (dose: 100.0 mg/kg/injection, schedule: Q04DX003 (ip), vehicle: Klucel (hydroxypropylcellulose) (HPC)) 100 % of control; (dose: 200.0 mg/kg/injection, schedule: Q01DX009 (ip), vehicle: Klucel (hydroxypropylcellulose) (HPC)) 115 % of control; under setting [1], 100 % of control; (dose: 400.0 mg/kg/injection, schedule: Q01DX009 (ip), vehicle: Klucel (hydroxypropylcellulose) (HPC)) 115 % of control; (dose: 400.0 mg/kg/injection, schedule: Q04DX003 (ip), vehicle: Klucel (hydroxypropylcellulose) (HPC)) 100 % of control.
For `CCCCCCNC1=CC(=O)CC(C)(C)C1`, the T/C runs as follows: under setting [2], 105 % of control; under setting [3], 99 % of control; under setting [4], 107 % of control.
For `CCNC(C)(C)C(=O)c1ccc(Cl)s1`, the T/C runs as follows: under setting [5], 98 % of control; (dose: 50.0 mg/kg/injection, schedule: Q01DX009 (ip), vehicle: saline with Tween-80) 91 % of control; (dose: 50.0 mg/kg/injection, schedule: Q04DX003 (ip), vehicle: saline with Tween-80) 99 % of control; (dose: 100.0 mg/kg/injection, schedule: Q01DX009 (ip), vehicle: saline with Tween-80) 96 % of control; under setting [6], 86 % of control and 109 % of control; under setting [7], 89 % of control and 104 % of control. In addition, the T/C under setting [8] was 95 % of control and 96 % of control.
Take `IC1CCCOC1[n+]1ccccc1` (stereo not given): the T/C (dose: 6.0 mg/kg/injection, schedule: Q01DX009 (ip), vehicle: saline with Tween-80) is 104 % of control; the T/C (dose: 12.0 mg/kg/injection, schedule: Q01DX009 (ip), vehicle: saline with Tween-80) is 109 % of control; the T/C (dose: 12.5 mg/kg/injection, schedule: Q04DX003 (ip), vehicle: saline with Tween-80) is 96 % of control; the T/C under setting [5] was 104 % of control; the T/C (dose: 25.0 mg/kg/injection, schedule: Q04DX003 (ip), vehicle: saline with Tween-80) is 107 % of control.
Take `CCCCCCCCOc1cc2c(c(OC(C)=O)c1)-c1ccccc1CC2`: the T/C reads like this: under setting [6], 97 % of control; under setting [7], 99 % of control; under setting [8], 99 % of control.
Take `CC[N+](C)(C)c1ncnc2nc[nH]c12`: the T/C by setting is: (dose: 25.0 mg/kg/injection, schedule: Q01DX009 (ip), vehicle: saline) 91 % of control; under setting [2], 95 % of control; under setting [3], 87 % of control and 91 % of control; (dose: 100.0 mg/kg/injection, schedule: Q04DX003 (ip), vehicle: saline) 104 % of control; under setting [4], 95 % of control; (dose: 200.0 mg/kg/injection, schedule: Q04DX003 (ip), vehicle: saline) 104 % of control.
Consider `O=C1c2ccccc2C(=O)N1c1cc(O)cc(O)c1`, for which the T/C is 109 % of control (dose: 1.0 mg/kg/injection, schedule: Q01DX009 (ip), vehicle: water); 113 % of control (dose: 2.0 mg/kg/injection, schedule: Q01DX009 (ip), vehicle: water); 95 % of control and 98 % of control and 105 % of control (dose: 4.0 mg/kg/injection, schedule: Q01DX009 (ip), vehicle: water); 90 % of control and 95 % of control (dose: 8.0 mg/kg/injection, schedule: Q01DX009 (ip), vehicle: water); 100 % of control and 115 % of control (dose: 16.0 mg/kg/injection, schedule: Q01DX009 (ip), vehicle: water); 101 % of control (dose: 20.0 mg/kg/injection, schedule: Q01DX009 (ip), vehicle: water). Also, the T/C was 109 % of control (dose: 32.0 mg/kg/injection, schedule: Q01DX009 (ip), vehicle: water); 100 % of control (dose: 50.0 mg/kg/injection, schedule: Q04DX003 (ip), vehicle: water); 106 % of control (dose: 100.0 mg/kg/injection, schedule: Q04DX003 (ip), vehicle: water); 97 % of control (dose: 200.0 mg/kg/injection, schedule: Q04DX003 (ip), vehicle: water); 92 % of control (dose: 400.0 mg/kg/injection, schedule: Q04DX003 (ip), vehicle: water).
